In ChEMBL document CHEMBL2413072, “Synthesis and in vitro anticancer studies of novel C-2 arylidene congeners of lantadenes” (2013):

What was measured:
Assay type in all cases: functional
[1] = tested on: HT-29; assay: Growth inhibition of human HT-29 cells by sulforhodamine B assay
[2] = tested on: KM12; assay: Growth inhibition of human KM12 cells assessed as cell growth at 10^-4 M by sulforhodamine B assay; settings: read-out: Activity
[3] = tested on: OVCAR-3; assay: Growth inhibition of human OVCAR3 cells assessed as cell growth at 10^-8 M by sulforhodamine B assay; settings: read-out: Activity
[4] = tested on: NCI-H23; assay: Growth inhibition of human NCI-H23 cells assessed as cell growth at 10^-8 M by sulforhodamine B assay; settings: read-out: Activity
[5] = tested on: A498; assay: Growth inhibition of human A498 cells assessed as cell growth at 10^-4 M by sulforhodamine B assay; settings: read-out: Activity
[6] = tested on: MDA-MB-468; assay: Growth inhibition of human MDA-MB-468 cells assessed as cell growth at 10^-4 M by sulforhodamine B assay; settings: read-out: Activity
[7] = tested on: SN12C; assay: Growth inhibition of human SN12C cells assessed as cell growth at 10^-8 M by sulforhodamine B assay; settings: read-out: Activity
[8] = tested on: CCRF-CEM; assay: Growth inhibition of human CCRF-CEM cells assessed as cell growth at 10^-6 M by sulforhodamine B assay; settings: read-out: Activity
[9] = tested on: SF-268; assay: Growth inhibition of human SF268 cells assessed as cell growth at 10^-4 M by sulforhodamine B assay; settings: read-out: Activity
[10] = tested on: NCI-H522; assay: Growth inhibition of human NCI-H522 cells assessed as cell growth at 10^-4 M by sulforhodamine B assay; settings: read-out: Activity
[11] = tested on: HCT-116; assay: Growth inhibition of human HCT116 cells assessed as cell growth at 10^-8 M by sulforhodamine B assay; settings: read-out: Activity
[12] = tested on: K562; assay: Growth inhibition of human K562 cells assessed as cell growth at 10^-4 M by sulforhodamine B assay; settings: read-out: Activity
[13] = tested on: NCI-H226; assay: Growth inhibition of human NCI-H226 cells assessed as cell growth at 10^-4 M by sulforhodamine B assay; settings: read-out: Activity
[14] = tested on: RXF 393; assay: Growth inhibition of human RXF393 cells assessed as cell growth at 10^-6 M by sulforhodamine B assay; settings: read-out: Activity
[15] = tested on: OVCAR-5; assay: Growth inhibition of human OVCAR5 cells assessed as cell growth at 10^-6 M by sulforhodamine B assay; settings: read-out: Activity
[16] = Growth inhibition of human Hs 578T cells assessed as cell growth at 10^-6 M by sulforhodamine B assay; settings: read-out: Activity
[17] = tested on: SW-620; assay: Growth inhibition of human SW620 cells assessed as cell growth at 10^-8 M by sulforhodamine B assay; settings: read-out: Activity
[18] = Growth inhibition of human NCI-ADR-RES cells assessed as cell growth at 10^-7 M by sulforhodamine B assay; settings: read-out: Activity
[19] = tested on: HCT-15; assay: Growth inhibition of human HCT15 cells assessed as cell growth at 10^-6 M by sulforhodamine B assay; settings: read-out: Activity
[20] = tested on: PC-3; assay: Growth inhibition of human PC3 cells assessed as cell growth at 10^-6 M by sulforhodamine B assay; settings: read-out: Activity
[21] = tested on: LOX IMVI; assay: Growth inhibition of human LOXIMVI cells assessed as cell growth at 10^-7 M by sulforhodamine B assay; settings: read-out: Activity
[22] = tested on: UACC-62; assay: Growth inhibition of human UACC62 cells by sulforhodamine B assay
[23] = tested on: NCI-H226; assay: Growth inhibition of human NCI-H226 cells assessed as cell growth at 10^-6 M by sulforhodamine B assay; settings: read-out: Activity
[24] = tested on: RPMI-8226; assay: Growth inhibition of human RPMI8226 cells assessed as cell growth at 10^-7 M by sulforhodamine B assay; settings: read-out: Activity
[25] = tested on: SR; assay: Growth inhibition of human SR cells assessed as cell growth at 10^-7 M by sulforhodamine B assay; settings: read-out: Activity
[26] = tested on: HL-60(TB); assay: Growth inhibition of human HL-60(TB) cells by sulforhodamine B assay
[27] = tested on: MOLT-4; assay: Growth inhibition of human MOLT4 cells assessed as cell growth at 10^-7 M by sulforhodamine B assay; settings: read-out: Activity
[28] = tested on: MOLT-4; assay: Growth inhibition of human MOLT4 cells assessed as cell growth at 10^-8 M by sulforhodamine B assay; settings: read-out: Activity
[29] = tested on: MDA-MB-468; assay: Growth inhibition of human MDA-MB-468 cells by sulforhodamine B assay
[30] = tested on: M14; assay: Growth inhibition of human M14 cells assessed as cell growth at 10^-4 M by sulforhodamine B assay; settings: read-out: Activity
[31] = tested on: CCRF-CEM; assay: Growth inhibition of human CCRF-CEM cells assessed as cell growth at 10^-4 M by sulforhodamine B assay; settings: read-out: Activity
[32] = tested on: SNB-19; assay: Growth inhibition of human SNB19 cells assessed as cell growth at 10^-8 M by sulforhodamine B assay; settings: read-out: Activity
[33] = tested on: SK-MEL-5; assay: Growth inhibition of human SK-MEL-5 cells assessed as cell growth at 10^-7 M by sulforhodamine B assay; settings: read-out: Activity
[34] = tested on: NCI-H322M; assay: Growth inhibition of human NCI-H322M cells assessed as cell growth at 10^-6 M by sulforhodamine B assay; settings: read-out: Activity
[35] = tested on: UO-31; assay: Growth inhibition of human UO31 cells assessed as cell growth at 10^-6 M by sulforhodamine B assay; settings: read-out: Activity
[36] = tested on: SNB-75; assay: Growth inhibition of human SNB75 cells assessed as cell growth at 10^-6 M by sulforhodamine B assay; settings: read-out: Activity
[37] = tested on: SW-620; assay: Growth inhibition of human SW620 cells assessed as cell growth at 10^-4 M by sulforhodamine B assay; settings: read-out: Activity
[38] = read-out: LC50 (the source's name)
[39] = read-out: pLC50 (the source's name) (converted)

Compound CC1(C)C[C@@H](O)[C@]2(C(=O)O)CC[C@]3(C)C(=CC[C@@H]4[C@@]5(C)C/C(=C\C=C\c6ccccc6)C(=O)C(C)(C)[C@@H]5CC[C@]43C)[C@@H]2C1 has a GI50 ([1]; read-out: GI50) of 2.68 µM, an LC50 (50% cell kill) ([1]; read-out: LC50) of 32.9 µM and a TGI ([1]; read-out: TGI) of 7.37 µM. It also gave a GI50 ([1]; read-out: pGI50 (converted)) of 2.69 µM, an LC50 (50% cell kill) ([1]; read-out: pLC50 (converted)) of 33.1 µM and a TGI ([1]; read-out: pTGI (converted)) of 7.41 µM. The growth at 100 µM [2] was -76%, the growth at 0.01 µM [3] was 102% and the growth at 0.01 µM [4] was 95%. It also gave a growth at 100 µM [5] of -97%, a growth at 100 µM [6] of -95% and a growth at 0.01 µM [7] of 98%. It also gave a growth at 1 µM [8] of 96%, a growth at 100 µM [9] of -83% and a growth at 100 µM [10] of -86%. It also gave a growth at 0.01 µM [11] of 100%, a growth at 100 µM [12] of 1% and a growth at 100 µM [13] of -70%. The growth at 1 µM [14] was 96%, the growth at 1 µM [15] was 93% and the growth at 1 µM [16] was 87%. The growth at 0.01 µM [17] was 99%, the growth at 0.1 µM [18] was 108% and the growth at 1 µM [19] was 95%. For the same compound, the growth at 1 µM [20] was 80%, the growth at 0.1 µM [21] was 95% and the GI50 ([22]; read-out: GI50) was 1.76 µM. It also gave a CC50 [22, 38] of 7.84 µM, a TGI ([22]; read-out: TGI) of 3.71 µM and a GI50 ([22]; read-out: pGI50 (converted)) of 1.78 µM. For the same compound, the CC50 [22, 39] was 7.76 µM, the TGI ([22]; read-out: pTGI (converted)) was 3.72 µM and the growth at 1 µM [23] was 83%. For the same compound, the growth at 0.1 µM [24] was 99%, the growth at 0.1 µM [25] was 100% and the GI50 ([26]; read-out: GI50) was 2.92 µM. The CC50 [26, 38] was greater than 100 µM, the TGI ([26]; read-out: TGI) was 6.89 µM and the GI50 ([26]; read-out: pGI50 (converted)) was 2.88 µM. The CC50 [26, 39] was greater than 100 µM, the TGI ([26]; read-out: pTGI (converted)) was 6.92 µM and the growth at 0.1 µM [27] was 97%. For the same compound, the growth at 0.01 µM [28] was 104%, the GI50 ([29]; read-out: GI50) was 3.3 µM and the CC50 [29, 38] was greater than 100 µM. The TGI ([29]; read-out: TGI) was 12.7 µM, the GI50 ([29]; read-out: pGI50 (converted)) was 3.31 µM and the CC50 [29, 39] was 37.2 µM. It also gave a TGI ([29]; read-out: pTGI (converted)) of 12.6 µM, a growth at 100 µM [30] of -77% and a growth at 100 µM [31] of -19%. For the same compound, the growth at 0.01 µM [32] was 94%, the growth at 0.1 µM [33] was 95% and the growth at 1 µM [34] was 94%. It also gave a growth at 1 µM [35] of 92%, a growth at 1 µM [36] of 79% and a growth at 100 µM [37] of -57%.
CC(C)=CC(=O)O[C@@H]1CC(C)(C)C[C@H]2C3=CC[C@@H]4[C@@]5(C)CCC(=O)C(C)(C)[C@@H]5CC[C@@]4(C)[C@]3(C)CC[C@@]12C(=O)O showed a GI50 ([1]; read-out: GI50) of 3.94 µM, an LC50 (50% cell kill) ([1]; read-out: LC50) greater than 100 µM and a TGI ([1]; read-out: TGI) of 32.3 µM. The GI50 ([1]; read-out: pGI50 (converted)) was 3.98 µM, the LC50 (50% cell kill) ([1]; read-out: pLC50 (converted)) was greater than 100 µM and the TGI ([1]; read-out: pTGI (converted)) was 32.4 µM. For the same compound, the growth at 100 µM [2] was -69%, the growth at 0.01 µM [3] was 104% and the growth at 0.01 µM [4] was 94%. The growth at 100 µM [5] was -44%, the growth at 100 µM [6] was -37% and the growth at 0.01 µM [7] was 99%. For the same compound, the growth at 1 µM [8] was 71%, the growth at 100 µM [9] was -38% and the growth at 100 µM [10] was -20%. It also gave a growth at 0.01 µM [11] of 98%, a growth at 100 µM [12] of 15% and a growth at 100 µM [13] of 12%. It also gave a growth at 1 µM [14] of 85%, a growth at 1 µM [15] of 86% and a growth at 1 µM [16] of 86%. It also gave a growth at 0.01 µM [17] of 100%, a growth at 0.1 µM [18] of 95% and a growth at 1 µM [19] of 55%. It also gave a growth at 1 µM [20] of 56%, a growth at 0.1 µM [21] of 92% and a GI50 ([22]; read-out: GI50) of 2.47 µM. It also gave a CC50 [22, 38] of 48.5 µM, a TGI ([22]; read-out: TGI) of 14.2 µM and a GI50 ([22]; read-out: pGI50 (converted)) of 2.45 µM. It also gave a CC50 [22, 39] of 49 µM, a TGI ([22]; read-out: pTGI (converted)) of 14.1 µM and a growth at 1 µM [23] of 81%. For the same compound, the growth at 0.1 µM [24] was 91%, the growth at 0.1 µM [25] was 99% and the GI50 ([26]; read-out: GI50) was 2.21 µM. The CC50 [26, 38] was greater than 100 µM, the TGI ([26]; read-out: TGI) was 5.38 µM and the GI50 ([26]; read-out: pGI50 (converted)) was 2.19 µM. The CC50 [26, 39] was greater than 100 µM, the TGI ([26]; read-out: pTGI (converted)) was 5.37 µM and the growth at 0.1 µM [27] was 100%. For the same compound, the growth at 0.01 µM [28] was 107%, the GI50 ([29]; read-out: GI50) was 2.27 µM and the CC50 [29, 38] was greater than 100 µM. It also gave a TGI ([29]; read-out: TGI) of 13.7 µM, a GI50 ([29]; read-out: pGI50 (converted)) of 2.29 µM and a CC50 [29, 39] greater than 100 µM. It also gave a TGI ([29]; read-out: pTGI (converted)) of 13.8 µM, a growth at 100 µM [30] of -62% and a growth at 100 µM [31] of -14%. The growth at 0.01 µM [32] was 98%, the growth at 0.1 µM [33] was 91% and the growth at 1 µM [34] was 83%. It also gave a growth at 1 µM [35] of 82%, a growth at 1 µM [36] of 87% and a growth at 100 µM [37] of -22%.
